Experimental data reported in patent US6680070B1, “Particulate blends and compacted products formed therefrom, and the preparation thereof” (Albemarle Corporation, priority 2000, dated 2004).
Several values for one entry are separate records, joined by “and”; a condition that tells them apart may be missing. Equal values may be shown once.

Experiments:
[1] = Large tablet compaction, 2.5-inch punch and die, Carver Press; conditions: 63.8 g, 2.5-inch die, 5000 psi, no dwell time, silicone oil lubricant
Protocol: Tableting operations were carried out using three different samples of 1,3-dibromo-5,5-dimethylhydantoin. In these operations, a 2.5-inch diameter stainless punch and die were used to compact samples weighing 63.8 grams each. […] A thin film of silicone oil lubricant was applied to the internal faces of the punch and die to promote good mold release. A Carver Press was used to apply a pressure of 5000 psi to the material. There was no dwell time, and the pressure was immediately released on obtaining 5000 psi. On extraction from the die, a visual observation of the compacted form was made.

[2] = Compaction test: tablet pressed in die, visual observation on extraction; type: physicochemical; conditions: 0.71 inch die, 5000 psi, no dwell time, die dusted with MICROPRO 400; listed as control sample
[3] = Granulation through Chilsonator breaker and screens; type: physicochemical; conditions: Chilsonator breaker, screens U.S. mesh 12 to 18
Protocol: The mixing time was 60 minutes in each case. […] The mixing time was 240 minutes. Each blend was passed through a Chilsonator® breaker (The Fitzpatrick Company, Elmhurst, Ill.) and a set of screens to produce compacted granules of U.S. mesh size 12 to 18. […] Instead, the unblended material exiting the Chilsonator® was mostly loose powder.

[4] = Storage stability at 50° C., wt % active bromine by iodometric titration; type: physicochemical
Text: Three more samples of the blend (5 g each) were compacted in the same manner, and each time a single tablet was extracted from the die after the pressure had been released. The tablets were manually broken into two equally-sized pieces. One half of each tablet was crushed into a powder with a mortar and pestle, and the powder was titrated using the standard, well-known, iodometric method with a starch indicator to determine the wt % of active bromine. The other half of each tablet was placed in a sealed glass vial and placed in an oven at 50° C. After 30 days, the samples were removed from the oven, ground up, and titrated to determine its wt % of active bromine using the same analytical method.

[5] = Crush strength test (Sintech 1/S compression apparatus); type: physicochemical; conditions: Table 8, no binder; for Crush Strength (force at breaking point), single tablet / Crush Strength per inch thickness, single tablet: 5 g, 5000 psi, aged 6 days at room temperature
Text: In each test, tablets made from 5 g of blended material were used. […] The apparatus includes a horizontal circular-shaped load cell interfaced with a computer, a digital micrometer also interfaced with the computer, and a vertical screw-driven piston that is disposed above the load cell and adapted to apply a downward force perpendicular to the load cell. The procedure for measuring crush strength involves measuring the thickness of the tablet with the micrometer to provide a digitized input to the computer. Next the tablet is placed on its edge on the load cell with the piston in contact with the upper edge of the tablet. Then the apparatus is activated whereby the piston commences applying a progressively increasing downward diametral force to the tablet. At the same time, the load cell continuously measures the downward force being applied to the tablet, and the input of such measurements is transmitted to the computer. When the force being applied reaches the point where the amount of force suddenly decreases to 10% of the immediately preceding force, the tablet has reached the breaking point, and the application of the force is immediately terminated by the software program. From the inputs to the computer, two values are provided, namely the pounds of force at the breaking point of the tablet, and the pounds of force per inch thickness of the tablet at the breaking point. Thus the greater the force applied, the greater the crush strength. […] When the compacted article is in a form other than a cylindrical tablet (e.g., a granule, caplet, briquette, or puck), the article being tested is to be positioned on the load cell and under the screw-driven piston with the longest axis of the article in the vertical position. In addition, the micrometer is used to measure the thickest portion of the article when the article is positioned on the load cell and under the screw-driven piston with the longest axis of the article in the vertical position.

[6] = Naproxen caplet compaction at 25,000 psi; type: physicochemical; conditions: imprinted stainless steel punch and die, 0.12-inch cross-sectional area
Protocol: A blend of commercially available virgin naproxen powder (Albemarle Corporation, Richmond, Va.) and micronized polyethylene wax (MPP-611; Micro Powders, Inc., Tarrytown, N.Y.) was formed. The blend contained 10 wt % of the micronized wax. Two 250 mg samples and three 318 mg samples of this blend were compacted in an imprinted stainless steel punch and die set of 0.12-inch cross-sectional area. Upon attaining a pressure of 25,000 psi, the pressure was released. […] The caplets were shiny and free of edge-burrs and surface defects. The imprinted lettering from the top punch was clearly impressed into the caplets.
Instead, as the punches were separated, approximately half of the naproxen had stuck to the top punch and the remainder had stuck to the bottom punch.

CC1(C)C(=O)N(Br)C(=O)N1Br
Observations (large tablet on extraction from die) [1]: Intact tablet exhibiting

CC1(C)C(=O)N(Br)C(=O)N1Br [DBDMH - without wax binder]
Observations (tablet on extraction from die) [2]: not possible to extract a single tablet from the die
Observations (large tablet on extraction from die) ([1]; listed as Commercial sample without binder): Tablet delaminates
Compaction into granules [3]: did not compact and form granules
Wt % Active Bromine, Initial ([4]; half tablet crushed, iodometric titration): 55.3 Wt %
Wt % Active Bromine, After 30 days ([4]; half tablet in sealed glass vial, oven at 50° C., 30 days): 55.2 Wt %

CC1(C)C(=O)N(Br)C(=O)N1Br [Set A]
Crush Strength (force at breaking point), single tablet ([5]; listed as A): 20.9 lb. and 25.5 lb. and 19.2 lb. and 22.8 lb. and 23.7 lb.
Crush Strength per inch thickness, single tablet ([5]; listed as A): 57.3 lb./in. and 69.5 lb./in. and 52.5 lb./in. and 62.1 lb./in. and 65.0 lb./in.
Crush Strength (force at breaking point), average of set ([5]; listed as A): 22.4 lb.
Crush Strength per inch thickness, average of set ([5]; listed as A): 61.3 lb./in.

CC1(C)C(=O)N(Br)C(=O)N1Br [Set B]
Crush Strength (force at breaking point), single tablet ([5]; listed as B): 10.7 lb. and 12.8 lb. and 9.8 lb.
Crush Strength per inch thickness, single tablet ([5]; listed as B): 30.4 lb./in. and 36.4 lb./in. and 27.8 lb./in.
Crush Strength (force at breaking point), average of set ([5]; listed as B): 11.1 lb.
Crush Strength per inch thickness, average of set ([5]; listed as B): 31.5 lb./in.

COc1ccc2cc([C@H](C)C(=O)O)ccc2c1 [naproxen]
Caplet formation [6]: No unbroken caplet of naproxen could be produced
